In patent US20120046249A1, “METHODS OF REDUCING THE RISK OF CARDIOVASCULAR DISEASE IN POSTMENOPAUSAL WOMEN” (priority 2008, published 2012):

Columns and labels:
Assay type in all cases: in vivo, human
[1] = Serum lipids (commercial laboratory), 2-year RCT of SDD versus placebo; settings: subgroup: women more than 5 years postmenopausal
Description: (§1) The objective of this study was to determine whether sub-antimicrobial-dose-doxycycline (SDD) can reduce serum inflammatory biomarkers associated with cardiovascular disease (CVD) risk (primary outcome: CRP) in a two-year, randomized controlled clinical trial (RCT) in postmenopausal (PM) women with systemic osteopenia and periodontitis. 113 women who completed the RCT (SDD group: n=51; placebo group: n=62) consented at the final (two-year) study visit for their baseline, one-year and two-year serum samples to be analyzed for serum inflammatory biomarkers. Analyses by ELISA included CRP (high-sensitivity ELISA), IL-6, myeloperoxidase (MPO), IL-1β and TNF-α. Serum lipids (total cholesterol, HDL cholesterol, LDL cholesterol, VLDL cholesterol, and triglycerides) were analyzed by a commercial laboratory. Statistical analyses were performed using Generalized Estimating Equations; primary analyses were intent-to-treat (ITT). Pre-specified subgroup analyses also were performed. All results are presented as ratios of median values (SDD versus placebo) unless otherwise indicated.

MMP-8/TIMP-1 = assay: Median MMP-8/TIMP-1 ratio, further analysis of the 2-year RCT; settings: women within five years of menopause, at two years
MMP-2 = assay: Serum MMP-2 by gelatin zymography, 2-year randomized clinical trial of SDD versus placebo; settings: per-protocol analysis, p=0.03, SDD minus placebo
Description: (§2) Elevated circulating MMP 9 has been associated with increased risk for fatal cardiac events and PM are considered a population vulnerable, due to decreased estrogen levels, to cardiovascular disease.
(§3) Details concerning subject inclusion and exclusion criteria have been published previously (Payne et al., J. Clin. Periodontol. 34:776-787, 2007). Briefly, subjects were 45-70 years of age at telephone screening, postmenopausal, osteopenic at the lumbar spine or femoral neck, and not receiving hormone replacement therapy (HRT). […] The subjects also had to be in good general health without co-morbidities that could have interfered with adherence to the study protocol, planned follow-up or endpoint measurement.
(§4) 113 PM women who completed the randomized clinical trial (RCT) consented at the final (two-year) study visit for the analysis of stored serum samples. 51 subjects received SDD (20 mg doxycycline) and 62 received placebo tablets b.i.d. for 2 years. Serum samples were collected at the baseline, 1-year and 2-year appointments and frozen at −80° C. until analyzed. MMPs were measured by gelatin zymography using denatured type I collagen as a substrate and purified MMP-2 (72 kDa) and MMP-9 (92 kDa) as standards. Gelatinolytic bands were scanned densitometrically. Statistical analyses were performed using Generalized Estimating Equations. Primary analyses were intent-to-treat (ITT). […]

MMP-9 = assay: Serum MMP-9 by gelatin zymography, 2-year randomized clinical trial of SDD versus placebo; settings: postmenopausal osteopenic women with periodontitis, 20 mg doxycycline b.i.d. for 2 years, 92 kDa gelatinase
Description: as §2, §3, §4

CRP = assay: Serum CRP by high-sensitivity ELISA, 2-year RCT of SDD versus placebo; settings: intent-to-treat
Description: The objective of this study was to determine whether sub-antimicrobial-dose-doxycycline (SDD) can reduce serum inflammatory biomarkers associated with cardiovascular disease (CVD) risk (primary outcome: CRP) in a two-year, randomized controlled clinical trial (RCT) in postmenopausal (PM) women with systemic osteopenia and periodontitis.
as §1, with “113” for “The objective of this study was to determine whether sub-antimicrobial-dose-doxycycline (SDD) can reduce serum inflammatory biomarkers associated with cardiovascular disease (CVD) risk (primary outcome: CRP) in a two-year, randomized controlled clinical trial (RCT) in postmenopausal (PM) women with systemic osteopenia and periodontitis. 113”

In the case of `C[C@H]1c2cccc(O)c2C(=O)C2=C(O)[C@]3(O)C(=O)C(C(N)=O)=C(O)[C@@H](N(C)C)[C@@H]3[C@@H](O)[C@@H]21` [SDD, 6α-deoxy-5-hydroxytetracycline], the “VLDL cholesterol, ratio of median values (SDD versus placebo)” value ([1]; 95% CI 0.76 to 1.00, p=0.06) is reported as 0.87, the “triglycerides, ratio of median values (SDD versus placebo)” value ([1]; 95% CI 0.76 to 1.01, p=0.06) is reported as 0.87 and the “increase in HDL cholesterol over time (difference in means)” value ([1]; 95% CI 1.17 to 10.81, p=0.01) is reported as 5.99 mg/dL. For the same molecule, the “reduction of median MMP-8/TIMP-1 ratio” value (MMP-8/TIMP-1) was 49%, the “MMP-8/TIMP-1, ratio of medians (SDD relative to placebo)” value (MMP-8/TIMP-1; 95% CI 0.31 to 0.82, p=0.006) was 0.51 and the “reduction of serum MMP-2, 2-year values (average)” value (MMP-2) was 16.5 units. The “reduction of serum MMP-9 levels (difference in means, SDD minus placebo)” value (MMP-9; intent-to-treat analysis) was 28.4 scanning units, the “reduction of serum MMP-9 levels (difference in means, SDD minus placebo)” value (MMP-9; per-protocol analysis) was 29.4 scanning units and the “reduction of median CRP levels compared to placebo” value (CRP; 2-year RCT, serum) was 18%. The “CRP, ratio of median values (SDD versus placebo)” value (CRP; 95% CI 0.70 to 0.97, p=0.02) was 0.82.
